Results taken from publication PMC5665932, “A novel peptide that improves metabolic parameters without adverse central nervous system effects” (Scientific Reports, 2017).

Columns and labels:
UCP1 = UCP1 expression in 3T3-L1 differentiated adipocytes (Western blot); type: cell-based; settings: for expression of UCP1 in 3T3-L1 adipose cells: 24 h treatment
Method: 3T3-L1 pre-adipocytes (American Type Culture Collection, Rockville, MD, USA) were cultured in complete medium comprising of DMEM (Dulbecco’s Modified Eagle Medium), containing 10% fetal bovine serum (Life Technologies, Carlsbad, CA, USA), 0.11 mg/mL pyruvate, 0.025 g/L penicillin (Sigma-Aldrich, Saint Louis, MO, USA) and 0.1 g/L streptomycin (Life Technologies, Carlsbad, CA, USA) at 37 °C and 5% CO2. For the experiments analyzing UCP1 expression, 3T3-L1 cells were seeded in 12-well plates at a confluence of 10 × 10^4 cells/mL/well. One day later, cells were differentiated using normal culture medium supplemented with 500 μM isobutylmethylxanthine (Sigma, St. Louis, MO, USA), 1 μM dexamethasone (Sigma, St. Louis, MO, USA), and 0.85 μg/mL bovine insulin (Sigma, St. Louis, MO, USA). After three days, the differentiation medium was changed to normal culture medium supplemented with 0.85 μg/mL bovine insulin. The fresh medium was renewed every 2 days. After 12 days of differentiation, cells were exposed for 24 h with either 5 µM rosiglitazone (RSG, Sigma, St. Louis, MO, USA), HP or Pep19 at different concentrations or with vehicle (normal culture medium plus protease inhibitor cocktail (Roche, Germany). Subsequent experiments were performed after preincubation for 2 min with and in the absence of either 5 µM rosiglitazone, 1 µM […], 1 µM AM251, 1 µM HP or vehicle (normal culture medium plus protease inhibitor cocktail (Roche, Germany) with subsequent addition of 1 µM Pep19 in medium. For Western-blot assays, cells were washed twice with ice-cold PBS, the supernatant was removed, and cells were lysed with 40 µL Laemmli buffer, transfered to tubes, sonicated and heated 95 °C during 5 min. Samples were kept at −20 °C till use. Before using, samples were thawed on ice, centrifuged, and proteins were separated on a 12% SDS-PAGE, followed by transfer to PVDF membranes (Merck Millipore, Darmstadt, Germany). […] Bands were visualized with Super-Signal West Pico Chemiluminescent substrate (Thermo Scientific) and quantified using ImageJ 1.49.

C57BL/6J mice = assay: Tetrad cannabinoid tests (catalepsy, tail temperature, locomotor activity, hot plate); type: in vivo; settings: n = 6/group
Method: C57BL/6J mice were treated i.p. with Pep19 (0.1 or 1 mg/kg), the CB1R agonist WIN55,212-2 (5 mg/kg) or vehicle (n = 6 per group) and evaluated in the tetrad cannabinoid tests. Another group of animals received Pep19 (0.1 or 1 mg/kg) or saline i.p. for 10 days, once a day. In the last day of treatment the animals were subjected to the tetrad cannabinoid tests 30 minutes after the i.p. administration. The CB1 agonist WIN55,212-2 (5 mg/kg) was administrated i.p. 30 minutes before the experiments as a positive control (n = 6 per group).
It was assayed by the bar test[40], 30 min after drug administration. Briefly, each mouse was placed on a bar oriented parallel to and approximately 4 cm above the bench surface. Cataleptic behavior was defined as the time the animal remained motionless holding on to the bar; cutoff = 300 s[41].
It was determined by using a thermal probe (Thermocom®, Nashua, NH 03062, EUA) positioned 50 cm of the animal. The mean of five pictures of five different tail regions was compared between a basal evaluation and another observation 35 min after drug administration.
It was determined by an open field test, in which a mouse was placed in a circular cage (40 cm diameter), 37 min after drug administration. The distance traveled by the animal was recorded for 10 min by the software ANY-MAZE (Stoelting).
The mouse was placed on a heated plate at 56 °C. An experimenter measured the time it took for the mouse to lick the paws or jump off of the hot plate; cutoff = 30 s[42]. The variation between a basal evaluation and another one taken 45 min after drug administration was defined as the result.

DIO Wistar rats [1] = assay: Diet-induced obesity model: body weight, food intake, adipose tissue masses, adiposity index; type: in vivo; settings: oral by gavage, 100 µg/Kg, mean ± SEM
Method: (§1) For the diet-induced obesity (DIO) model, male Wistar rats received instead of water a 20% sucrose solution for 13 consecutive weeks. All animals including controls received food ad libitum. Pep19 was administrated orally by gavages. After 13 weeks of treatment all rats were sacrificed by decapitation (after overnight fasting). Blood from the trunk was collected into tubes without anticoagulants and immediately centrifuged (3000 x g for 15 min at 4 °C), and serum was stored at −20 °C. Blood serum was used for all biochemical determinations. The adipose tissues masses were used to calculate the adiposity index (the percentage of the sum of all white adipose tissue pads in relation to total body weight).

Male Wistar rats = assay: Forced swim test; type: in vivo; settings: first 5 min of the swim test, n = 6/group (Pep19), n = 8–10/group (rimonabant)
Method: The forced swim test was based on previous designs. Male Wistar rats were placed in a cylindrical plexiglass tank (50 cm high and 30 cm diameter) filled with water (19 °C) up to a level of 25 cm from the bottom. The animal’s behavior during the first 5 min of the swim test was scored by a trained observer and the following measures were taken: (1) time spent swimming, defined as movements of all four limbs, swimming around the tank or diving and (2) time spent floating, defined as the time the animal remained immobile with only occasional slight movements to keep the body balanced and the nose above the water.

DIO Wistar rats [2] = assay: Diet-induced obesity model: serum/blood biochemical determinations; type: in vivo; settings: oral by gavage, 100 µg/Kg, mean ± SEM
Method: as §1
Serum cholesterol and triglycerides were quantified enzymatically using commercial kits from Labtest Diagnóstica (Triglicerides Liquiform andLiquiform, Lagoa Santa, MG, Brazil). Insulin levels were determined using specific rat radioimmunoassay kits (Millipore Corporation, Billerica, MA, USA). Blood glucose concentration was measured by a glucometer (Advantage, Roche Diagnostics Corporation, Indianapolis, USA).

c-Fos = assay: Mice brain c-Fos protein immunohistochemistry; type: in vivo; settings: 1 mg/kg administrated orally, two hours post administration, C57BL/6J mice, vs vehicle (water), n = 3/group
Method: Mice C57BL/6J (25 ± 2 g; n = 3 per group) were assigned randomly to receive gavage (v.o.) of either vehicle (water), or 1 mg/kg body weight HP or 1 mg/kg Pep19. All solutions were prepared minutes before use. Two hours post administrations mice were deeply anaesthetized with ketamine and xylazine (i.p.; […], respectively) and perfused transcardially with heparinised saline (5000 UI/kg) in phosphate buffer (PB 0.1 M, pH 7.3) followed by 4% paraformaldehyde in PB 0.1 M. The brains were post fixed and kept in 30% sucrose in 0.1 M PB to cryoprotect the tissue. […]
The regions of interest were identified based on a stereotaxic atlas[45]: arcuate hypothalamic nucleus (Arc), ventromedial hypothalamic nucleus (VMN), periaqueductal grey (PAG), orbitofrontal cortex (VO), accumbens nucleus (Acb). The corresponding images were captured using a Nikon Eclipse E800, camera DC-F1 with Nis Element program. cFos positive cells per section were counted manually using ImageJ (NIH/USA). Results are are expressed as the means ± standard error of the mean (SEM) of c-Fos immunoreactive cells per section in each brain area (5 sections/brain/structure). […] Data were statistically analyzed with GraphPad Prism software (GraphPad Software Inc, San Diego, CA, USA).

Cc1c(C(=O)NN2CCCCC2)nn(-c2ccc(Cl)cc2Cl)c1-c1ccc(I)cc1 [AM251]
effect on UCP1 activation by Pep19 (UCP1; 1 µM, preincubation 2 min, then Pep19 1 µM for 24 h, 3T3-L1 adipocyte cells): prevented UCP1 activation by Pep19

Cc1c(C(=O)c2cccc3ccccc23)c2cccc3c2n1[C@H](CN1CCOCC1)CO3 [WIN55,212–2]
cannabinoid tetrad, positive control of the chronic experiment (C57BL/6J mice; 5 mg/kg i.p. 30 minutes before the experiments, P<0.05): affected all parameters evaluated
cannabinoid tetrad (catalepsy, hot plate, locomotor activity, tail temperature) (C57BL/6J mice; 5 mg/kg i.p., positive control, p < 0.05): affected all the parameters evaluated

Cc1c(C(=O)NN2CCCCC2)nn(-c2ccc(Cl)cc2Cl)c1-c1ccc(Cl)cc1 [Rimonabant]
Body weight (% of control day zero) (DIO Wistar rats [1]): 111 ± 1.0 (n = 10) % of control day zero
Gonadal Adipose Tissue weight (DIO Wistar rats [1]): 1.75 ± 0.1 (n = 10) g
Mesenteric Adipose Tissue weight (DIO Wistar rats [1]): 0.86 ± 0.1 (n = 9) g
Retroperitoneal Adipose Tissue weight (DIO Wistar rats [1]): 2.10 ± 0.1 (n = 10) g
Adiposity Index (total/100 g) (DIO Wistar rats [1]; percentage of the sum of all white adipose tissue pads in relation to total body weight): 5.85 ± 0.2 (n = 9) total/100 g
forced swim test: time spent swimming and time spent floating (Male Wistar rats): affected both time spent swimming (empty bars) and time spent floating
Glucose level (DIO Wistar rats [2]; glucometer): 118.3 ± 4.2(n = 9) mg/dl
Cholesterol (% of control day zero) (DIO Wistar rats [2]; serum): 98.51 ± 5.8 (n = 9) % of control day zero
Triacylglycerol (% of control day zero) (DIO Wistar rats [2]; serum): 112 ± 7.7 (n = 10) % of control day zero
Insulin (DIO Wistar rats [2]; serum, radioimmunoassay): 2.71 ± 0.8 (n = 5) ng/mL

CN(CCOc1ccc(CC2SC(=O)NC2=O)cc1)c1ccccn1 (stereo not shown) [RSG, Rosiglitazone]
expression of UCP1 in 3T3-L1 adipose cells (UCP1; 5 µM, positive control): increased the expression of UCP1

PVNFKFLSH [HP, Hemopressin, …, inverse agonist of cannabinoid type 1 receptors]
expression of UCP1 in 3T3-L1 adipose cells (UCP1; 0.1–10 µM, GAPDH loading control): increased the expression of UCP1
number of cFos positive cells in brain areas (Arc, VMN, PAG, VO, Acb) (c-Fos): increased the number of cFos positive cells in Arc, VMN and PAG
